Measurements as given in ChEMBL document CHEMBL4334471, “Discovery of 1,8-disubstituted-[1,2,3]triazolo[4,5-c]quinoline derivatives as a new class of Hippo signaling pathway inhibitors” (Bioorg Med Chem Lett, 2019).

Key:
[1] = target: Dual specificity protein kinase CLK1 (Homo sapiens) (UniProt P49759); test: Inhibition of recombinant human CLK1 (130 to end residues) assessed as residual activity at 10 uM using ERMRPRKRQGSVRRRV as substrate incubated 40 mins in presence of [gamma-33ATP] by scintillation counting based radiometry assay relative to control
[2] = target: Serine/threonine-protein kinase SIK3 (Homo sapiens) (UniProt Q9Y2K2); test: Inhibition of recombinant human SIK3 (1 to 307 residues) assessed as residual activity at 10 uM using KKKVSRSGLYRSPSMPENLNRPR as substrate incubated for 40 mins in presence of [gamma33P]ATP by scintillation counting based radiometry assay relative to control
[3] = test system: PI3-kinase p110-alpha/p85-alpha (Homo sapiens), P27986+P42336 [E545K]; test: Inhibition of recombinant full-length human PI3K p110/p85 E545K mutant assessed as residual activity at 10 uM using phosphatidylinositol-4, 5-bisphosphate as substrate incubated for 40 mins in presence of [gamma33P]ATP by scintillation counting based radiometry assay relative to control
[4] = target: ALK tyrosine kinase receptor (Homo sapiens) (UniProt Q9UM73); test: Inhibition of human ALK (1058 to end residues) assessed as residual activity at 10 uM using KKKSPGEYVNIEFG as substrate incubated for 40 mins in presence of [gamma-33ATP] by scintillation counting based radiometry assay relative to control
Sequence of ALK tyrosine kinase receptor (Homo sapiens) (Q9UM73 19-1620 limits assumed): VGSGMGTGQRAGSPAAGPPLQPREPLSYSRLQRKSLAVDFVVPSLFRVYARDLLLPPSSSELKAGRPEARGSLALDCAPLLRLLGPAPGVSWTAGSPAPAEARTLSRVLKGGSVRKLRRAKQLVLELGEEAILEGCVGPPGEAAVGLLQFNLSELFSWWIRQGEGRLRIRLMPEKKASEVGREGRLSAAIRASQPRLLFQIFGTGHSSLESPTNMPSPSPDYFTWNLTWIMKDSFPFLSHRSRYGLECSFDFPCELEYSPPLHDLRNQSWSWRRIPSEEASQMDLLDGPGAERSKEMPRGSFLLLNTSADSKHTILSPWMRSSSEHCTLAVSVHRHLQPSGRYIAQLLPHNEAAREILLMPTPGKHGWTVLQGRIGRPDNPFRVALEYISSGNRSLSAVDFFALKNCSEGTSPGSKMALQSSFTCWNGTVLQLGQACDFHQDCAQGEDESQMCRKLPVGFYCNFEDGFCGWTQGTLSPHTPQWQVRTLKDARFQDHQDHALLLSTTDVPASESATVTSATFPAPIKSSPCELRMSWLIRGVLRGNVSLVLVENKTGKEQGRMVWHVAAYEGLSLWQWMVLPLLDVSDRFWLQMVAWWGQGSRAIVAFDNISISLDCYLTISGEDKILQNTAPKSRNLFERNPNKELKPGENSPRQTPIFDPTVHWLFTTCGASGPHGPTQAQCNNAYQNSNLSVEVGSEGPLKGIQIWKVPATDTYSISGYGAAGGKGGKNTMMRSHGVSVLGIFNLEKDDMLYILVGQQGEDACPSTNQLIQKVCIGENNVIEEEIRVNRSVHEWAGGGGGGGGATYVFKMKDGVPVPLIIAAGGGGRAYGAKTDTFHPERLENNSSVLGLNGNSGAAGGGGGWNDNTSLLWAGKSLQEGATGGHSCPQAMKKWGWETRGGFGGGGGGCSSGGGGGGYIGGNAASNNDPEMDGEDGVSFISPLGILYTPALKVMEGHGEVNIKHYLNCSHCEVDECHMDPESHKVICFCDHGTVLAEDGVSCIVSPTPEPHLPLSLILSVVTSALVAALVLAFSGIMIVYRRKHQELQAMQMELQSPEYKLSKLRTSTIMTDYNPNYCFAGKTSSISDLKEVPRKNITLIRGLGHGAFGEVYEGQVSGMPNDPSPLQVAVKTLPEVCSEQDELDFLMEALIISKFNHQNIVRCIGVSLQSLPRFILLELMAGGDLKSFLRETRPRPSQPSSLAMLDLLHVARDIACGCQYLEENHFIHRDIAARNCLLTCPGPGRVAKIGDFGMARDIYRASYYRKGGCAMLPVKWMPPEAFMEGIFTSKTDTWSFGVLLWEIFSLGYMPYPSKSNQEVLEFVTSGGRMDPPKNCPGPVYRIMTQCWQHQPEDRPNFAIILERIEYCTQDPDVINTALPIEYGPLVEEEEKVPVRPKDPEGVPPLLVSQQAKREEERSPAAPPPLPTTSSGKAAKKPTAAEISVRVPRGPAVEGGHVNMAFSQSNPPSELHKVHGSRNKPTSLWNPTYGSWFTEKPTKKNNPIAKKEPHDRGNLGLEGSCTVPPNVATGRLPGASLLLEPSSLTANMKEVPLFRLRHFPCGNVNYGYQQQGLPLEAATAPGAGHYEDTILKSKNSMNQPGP

[5] = target: Ribosomal protein S6 kinase alpha-2 (Homo sapiens) (UniProt Q15349); test: Inhibition of recombinant full length human Rsk3 assessed as residual activity at 10 uM using KKKNRTLSVA as substrate incubated for 40 mins in presence of [gamma33P]ATP by scintillation counting based radiometry assay relative to control
[6] = test system: Hepatocyte growth factor receptor (Homo sapiens), P08581 [M1250T]; test: Inhibition of recombinant human MET A1209G/V1290L/M1268T mutant (974 to end residues) assessed as residual activity at 10 uM using KKKGQEEEYVFIE as substrate incubated for 40 mins in presence of [gamma-33ATP by scintillation counting based radiometry assay relative to control
[7] = target: Homeodomain-interacting protein kinase 4 (Homo sapiens) (UniProt Q8NE63); test: Inhibition of human HIPK4 assessed as residual activity at 10 uM using RRRFRPASPLRGPPK as substrate after 40 mins by [gamma-33ATP] radiometric assay relative to control
Sequence of Homeodomain-interacting protein kinase 4 (Homo sapiens) (Q8NE63 whole entry, the tested form may be a part): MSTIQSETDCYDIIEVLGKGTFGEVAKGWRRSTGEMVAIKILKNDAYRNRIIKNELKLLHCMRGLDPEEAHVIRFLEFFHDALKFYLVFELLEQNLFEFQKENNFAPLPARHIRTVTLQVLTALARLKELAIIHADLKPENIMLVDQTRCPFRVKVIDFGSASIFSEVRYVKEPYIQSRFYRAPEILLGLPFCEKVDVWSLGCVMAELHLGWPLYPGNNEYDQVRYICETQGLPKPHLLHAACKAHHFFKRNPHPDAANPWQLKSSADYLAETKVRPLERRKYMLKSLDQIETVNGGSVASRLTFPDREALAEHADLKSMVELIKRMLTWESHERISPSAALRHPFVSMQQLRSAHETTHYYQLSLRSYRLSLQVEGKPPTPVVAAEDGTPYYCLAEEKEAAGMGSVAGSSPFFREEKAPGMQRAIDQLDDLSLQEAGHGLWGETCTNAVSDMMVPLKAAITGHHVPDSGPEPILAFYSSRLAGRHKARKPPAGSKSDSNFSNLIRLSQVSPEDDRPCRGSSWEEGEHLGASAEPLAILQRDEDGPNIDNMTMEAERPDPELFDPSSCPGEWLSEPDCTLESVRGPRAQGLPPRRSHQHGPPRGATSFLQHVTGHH

[8] = target: Serine/threonine-protein kinase WNK2 (Homo sapiens) (UniProt Q9Y3S1); test: Inhibition of recombinant human WNK2 (166 to 489 residues) assessed as residual activity at 10 uM using myelin basic protein as substrate incubated for 40 mins in presence of [gamma33P]ATP by scintillation counting based radiometry assay relative to control
[9] = target: Tyrosine-protein kinase Lck (Homo sapiens) (UniProt P06239); test: Inhibition of recombinant full length human LCK assessed as residual activity at 10 uM using KVEKIGEGTYGVV as substrate after 40 mins in presence of [gamma-33ATP] by scintillation counting based radiometry assay relative to control
[10] = species: Homo sapiens; test: Inhibition of recombinant full length human PRAK R291E mutant assessed as residual activity at 10 uM using KKLRRTLSVA as substrate incubated for 40 mins in presence of [gamma33P]ATP by scintillation counting based radiometry assay relative to control
[11] = target: Dual specificity tyrosine-phosphorylation-regulated kinase 1B (Homo sapiens) (UniProt Q9Y463); test: Inhibition of recombinant human DYRK1B assessed as residual activity at 10 uM using RRRFRPASPLRGPP as substrate at 40 mins in presence of [gamma-33ATP] by scintillation counting based radiometry assay relative to control
[12] = target: FKBP12A/mTOR (Homo sapiens) (UniProt P62942+P42345); test: Inhibition of recombinant full length human mTOR/FKBP12 assessed as residual activity at 10 uM measured after 40 mins in presence of [gamma33P]ATP by scintillation counting based radiometry assay relative to control; type: protein-complex assay
Sequence of FKBP12A/mTOR (Homo sapiens) (P62942 2-108 limits assumed, other chains not shown): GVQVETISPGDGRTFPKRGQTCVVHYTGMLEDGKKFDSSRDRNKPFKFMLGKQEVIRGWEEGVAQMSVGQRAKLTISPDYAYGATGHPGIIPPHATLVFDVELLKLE

[13] = target: Serine-protein kinase ATM (Homo sapiens) (UniProt Q13315); test: Inhibition of recombinant full-length human ATM assessed as residual activity at 10 uM using GST-cMyc-p53 as substrate measured after 40 mins by ELISA relative to control
[14] = target: Dual specificity tyrosine-phosphorylation-regulated kinase 3 (Homo sapiens) (UniProt O43781); test: Inhibition of recombinant human DYRK3 assessed as residual activity at 10 uM using RRRFRPASPLRGPP as substrate at 40 mins in presence of [gamma-33ATP] by scintillation counting based radiometry assay relative to control
Sequence of Dual specificity tyrosine-phosphorylation-regulated kinase 3 (Homo sapiens) (O43781 whole entry): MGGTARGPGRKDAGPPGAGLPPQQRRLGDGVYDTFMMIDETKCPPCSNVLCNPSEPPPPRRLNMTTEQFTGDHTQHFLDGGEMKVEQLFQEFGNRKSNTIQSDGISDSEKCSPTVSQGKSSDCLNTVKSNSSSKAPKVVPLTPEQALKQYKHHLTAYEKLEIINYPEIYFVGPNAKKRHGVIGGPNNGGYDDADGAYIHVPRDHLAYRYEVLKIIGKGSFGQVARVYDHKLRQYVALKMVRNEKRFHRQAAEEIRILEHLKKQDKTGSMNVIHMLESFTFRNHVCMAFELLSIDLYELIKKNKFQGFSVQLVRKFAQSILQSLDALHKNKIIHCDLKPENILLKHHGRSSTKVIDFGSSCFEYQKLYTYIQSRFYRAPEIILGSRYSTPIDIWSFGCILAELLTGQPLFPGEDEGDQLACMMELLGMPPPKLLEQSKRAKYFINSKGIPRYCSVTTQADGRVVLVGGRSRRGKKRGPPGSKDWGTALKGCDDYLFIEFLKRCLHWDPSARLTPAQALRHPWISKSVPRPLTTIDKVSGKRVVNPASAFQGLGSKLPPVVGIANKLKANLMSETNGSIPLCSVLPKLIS

[15] = target: Mitogen-activated protein kinase 9 (Homo sapiens) (UniProt P45984); test: Inhibition of human JNK2alpha2 assessed as residual activity at 10 uM using ATF2 as substrate after 40 mins by [gamma-33ATP] radiometric assay relative to control
[16] = target: Serine/threonine-protein kinase D3 (Homo sapiens) (UniProt O94806); test: Inhibition of recombinant full-length human PKD3 assessed as residual activity at 10 uM using KKLNRTLSVA as substrate incubated for 40 mins in presence of [gamma33P]ATP by scintillation counting based radiometry assay relative to control
Sequence of Serine/threonine-protein kinase D3 (Homo sapiens) (O94806 whole entry): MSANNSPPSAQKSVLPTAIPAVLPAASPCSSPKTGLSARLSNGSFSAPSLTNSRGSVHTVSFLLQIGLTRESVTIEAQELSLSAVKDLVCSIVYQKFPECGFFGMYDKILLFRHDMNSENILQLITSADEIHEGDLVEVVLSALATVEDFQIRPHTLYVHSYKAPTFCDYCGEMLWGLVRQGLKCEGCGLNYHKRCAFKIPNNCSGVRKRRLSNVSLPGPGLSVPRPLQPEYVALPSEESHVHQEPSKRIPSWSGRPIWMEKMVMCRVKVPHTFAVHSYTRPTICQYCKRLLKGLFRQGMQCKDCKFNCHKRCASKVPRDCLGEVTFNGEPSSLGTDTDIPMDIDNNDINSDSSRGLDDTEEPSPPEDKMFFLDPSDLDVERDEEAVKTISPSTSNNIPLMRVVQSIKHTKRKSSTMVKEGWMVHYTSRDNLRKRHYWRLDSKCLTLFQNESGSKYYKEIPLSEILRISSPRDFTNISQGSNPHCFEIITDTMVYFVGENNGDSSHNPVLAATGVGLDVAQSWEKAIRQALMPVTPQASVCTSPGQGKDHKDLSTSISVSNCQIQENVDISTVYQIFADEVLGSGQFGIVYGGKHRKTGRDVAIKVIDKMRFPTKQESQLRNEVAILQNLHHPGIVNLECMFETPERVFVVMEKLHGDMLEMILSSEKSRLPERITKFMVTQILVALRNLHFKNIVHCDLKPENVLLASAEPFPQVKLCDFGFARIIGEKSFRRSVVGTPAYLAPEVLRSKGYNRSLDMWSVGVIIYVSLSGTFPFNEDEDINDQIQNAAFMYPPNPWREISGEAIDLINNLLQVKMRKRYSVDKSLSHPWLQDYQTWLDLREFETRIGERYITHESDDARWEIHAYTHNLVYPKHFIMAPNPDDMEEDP

[17] = target: Non-receptor tyrosine-protein kinase TYK2 (Homo sapiens) (UniProt P29597); test: Inhibition of recombinant human TYK2 (875 to end residues) assessed as residual activity at 10 uM using GGMEDIYFEFMGGKKK as substrate incubated for 40 mins in presence of [gamma33P]ATP by scintillation counting based radiometry assay relative to control
Sequence of Non-receptor tyrosine-protein kinase TYK2 (Homo sapiens) (P29597 whole entry): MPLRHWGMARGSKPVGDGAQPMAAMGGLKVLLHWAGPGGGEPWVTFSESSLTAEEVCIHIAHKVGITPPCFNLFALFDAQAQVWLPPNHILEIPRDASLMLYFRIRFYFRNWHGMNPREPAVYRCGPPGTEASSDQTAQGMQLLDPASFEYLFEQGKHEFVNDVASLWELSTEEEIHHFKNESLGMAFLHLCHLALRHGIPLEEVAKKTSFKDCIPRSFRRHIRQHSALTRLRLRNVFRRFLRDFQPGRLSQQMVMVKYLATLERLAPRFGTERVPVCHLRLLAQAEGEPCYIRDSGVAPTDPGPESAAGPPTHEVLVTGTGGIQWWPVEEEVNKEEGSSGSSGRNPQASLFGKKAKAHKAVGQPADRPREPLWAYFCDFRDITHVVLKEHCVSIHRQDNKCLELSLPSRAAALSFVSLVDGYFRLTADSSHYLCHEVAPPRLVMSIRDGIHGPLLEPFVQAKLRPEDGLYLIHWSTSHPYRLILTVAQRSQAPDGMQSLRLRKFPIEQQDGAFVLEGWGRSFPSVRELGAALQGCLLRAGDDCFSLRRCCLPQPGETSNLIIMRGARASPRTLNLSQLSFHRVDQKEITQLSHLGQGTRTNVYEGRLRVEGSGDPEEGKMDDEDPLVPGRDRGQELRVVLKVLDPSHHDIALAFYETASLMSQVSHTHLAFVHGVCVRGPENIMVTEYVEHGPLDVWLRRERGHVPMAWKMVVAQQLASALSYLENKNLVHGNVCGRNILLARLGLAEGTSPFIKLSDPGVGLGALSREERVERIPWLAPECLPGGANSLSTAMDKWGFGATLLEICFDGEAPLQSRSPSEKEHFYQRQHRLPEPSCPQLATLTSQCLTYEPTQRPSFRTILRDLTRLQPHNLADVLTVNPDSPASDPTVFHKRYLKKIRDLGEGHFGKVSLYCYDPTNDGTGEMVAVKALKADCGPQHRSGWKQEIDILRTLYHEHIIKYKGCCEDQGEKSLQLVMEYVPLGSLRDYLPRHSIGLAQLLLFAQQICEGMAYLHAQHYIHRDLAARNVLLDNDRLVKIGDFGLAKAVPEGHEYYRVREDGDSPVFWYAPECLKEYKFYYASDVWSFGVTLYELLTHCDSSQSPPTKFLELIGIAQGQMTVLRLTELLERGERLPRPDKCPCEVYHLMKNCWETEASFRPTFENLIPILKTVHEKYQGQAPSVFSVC

[18] = test system: Tyrosine-protein kinase ABL1 (Homo sapiens), P00519 [M351T]; test: Inhibition of human ABL1 M351T mutant (27 to end residues) assessed as residual activity at 10 uM using EAIYAAPFAKKK as substrate incubated for 40 mins in presence of [gamma-33ATP] by scintillation counting based radiometry assay relative to control
[19] = target: Serine/threonine-protein kinase MRCK beta (Homo sapiens) (UniProt Q9Y5S2); test: Inhibition of recombinant human MRCKbeta (1 to 473 residues) assessed as residual activity at 10 uM using KKRNRTLTV as substrate incubated for 40 mins in presence of [gamma-33ATP by scintillation counting based radiometry assay relative to control
[20] = target: Leucine-rich repeat serine/threonine-protein kinase 2 (Homo sapiens) (UniProt Q5S007); test: Inhibition of recombinant human LRRK2 (970 to end residues) assessed as residual activity at 10 uM using RLGRDKYKTLRQI as substrate after 40 mins in presence of [gamma-33ATP] by scintillation counting based radiometry assay relative to control
[21] = target: Phosphatidylinositol 4-phosphate 3-kinase C2 domain-containing subunit alpha (Homo sapiens) (UniProt O00443); test: Inhibition of recombinant human PI3KC2alpha (299 to end residues) assessed as residual activity at 10 uM using phosphatidylinositol as substrate incubated for 40 mins in presence of [gamma33P]ATP by scintillation counting based radiometry assay relative to control

`C[C@@H](c1ccccc1)n1nnc2cnc3ccc(-c4cnc5[nH]ccc5c4)cc3c21` showed an Activity [1] of 38%, an Activity [2] of 20% and an Activity [3] of 2%. For the same compound, the Activity [4] was 28%, the Activity [5] was 93% and the Activity [6] was 45%. The Activity [7] was 57%, the Activity [8] was 85% and the Activity [9] was 6%. For the same compound, the Activity [10] was 87%, the Activity [11] was 83% and the Activity [12] was -1%. The Activity [13] was 0%, the Activity [14] was 79% and the Activity [15] was 95%. For the same compound, the Activity [16] was 53%, the Activity [17] was 60% and the Activity [18] was 3%. For the same compound, the Activity [19] was 105%, the Activity [20] was 11% and the Activity [21] was -60 to 66%.
